Data published in the NIST ThermoML archive (doi:10.1016/j.jct.2011.02.006).
Numbers after ± are expanded uncertainties.

Tests used:
[1] = for viscosity / mass density: 101.33 kPa, Liquid; for viscosity: Falling or rolling sphere viscometry; for mass density: Vibrating tube method
[2] = Molar enthalpy of transition or fusion; settings: Crystal; DSC

CCCC[n+]1ccc2ccccc2c1.O=S(=O)([N-]S(=O)(=O)C(F)(F)F)C(F)(F)F [2-butylisoquinolinium bis[(trifluoromethyl)sulfonyl]amide]
[1]
Settings | mass density [kg/m3] | viscosity [mPa·s]
323.2 K | 1413.21 ± 6.9 | 71.07 ± 3.3
328.2 K | 1408.78 ± 6.9 | 56.23 ± 2.5
333.2 K | 1404.32 ± 6.8 | 45.14 ± 2.1
338.2 K | 1399.88 ± 6.8 | 38.46 ± 1.7
343.2 K | 1395.47 ± 6.7 | 32.08 ± 1.5
348.2 K | 1391.06 ± 6.7 | 27.1 ± 1.2
353.2 K | 1386.66 ± 6.7 | 23.02 ± 1
358.2 K | 1382.26 ± 6.6 | 19.87 ± 0.9
363.2 K | 1377.88 ± 6.6 | 16.14 ± 0.73

[1], DTA
Settings | Glass transition temperature [°C] | Normal melting temperature [°C]
Crystal | – | 48 ± 0.39
Glass | -55.2 ± 1.1 | –

Settings | Molar enthalpy of transition or fusion [kJ/mol]
[2] | 46.1 ± 0.99
